Test results as given in US20210323950A1, “HERBICIDALLY ACTIVE BICYCLIC BENZOYLPYRAZOLES” (Bayer Aktiengesellschaft, priority 2018, published 2021).

Experiments:
Assay type in all cases: in vivo
Details in all cases: 320 g/ha, scored visually after about 3 weeks vs untreated controls
Veronica persica (VERPE) = experiment: Pre-emergence herbicidal action against VERPE
Excerpt: (§1) VERPE: Veronica persica 1. Pre-Emergence Herbicidal Action and Crop Plant Compatibility Seeds of monocotyledonous and dicotyledonous weed plants and crop plants are placed in plastic or organic planting pots and covered with soil. The compounds of the invention, formulated in the form of wettable powders (WP) or as emulsion concentrates (EC), are then applied onto the surface of the covering soil as aqueous suspension or emulsion with addition of 0.5% additive at a water application rate of […] (converted). After the treatment, the pots are placed in a greenhouse and kept under good growth conditions for the trial plants. After about 3 weeks, the effect of the preparations is scored visually in comparison with untreated controls as percentages. The tables below show the herbicidal activity of numerous compounds according to the invention against important harmful plants. For example, 100% activity=the plants have died, 0% activity=like control plants.

[1] = test system: Amaranthus retroflexus (AMARE); experiment: Pre-emergence herbicidal action against AMARE
Outline: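 Formulated compounds (WP or EC) sprayed onto soil covering sown seeds, with 0.5% additive at […] water (converted). Greenhouse-grown about 3 weeks, then damage scored visually as percent versus untreated controls (100% = dead, 0% = like control).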

[2] = test system: Echinochloa crus-galli (ECHCG); experiment: Pre-emergence herbicidal action against ECHCG
Excerpt: as §1, with “ECHCG: Echinochloa crus-galli” for “VERPE: Veronica persica”

Setaria viridis (SETVI) = experiment: Pre-emergence herbicidal action against SETVI
Excerpt: as §1, with “SETVI: Setaria viridis” for “VERPE: Veronica persica”

Viola tricolor (VIOTR) = experiment: Pre-emergence herbicidal action against VIOTR
Excerpt: as §1, with “VIOTR: Viola tricolor” for “VERPE: Veronica persica”

[3] = test system: Cyperus esculentus (CYPES); experiment: Pre-emergence herbicidal action against CYPES
Excerpt: as §1, with “CYPES: Cyperus esculentus” for “VERPE: Veronica persica”

[4] = test system: Abutilon theophrasti (ABUTH); experiment: Pre-emergence herbicidal action against ABUTH
Excerpt: as §1, with “ABUTH: Abutilon theophrasti” for “VERPE: Veronica persica”

Stellaria media (STEME) = experiment: Pre-emergence herbicidal action against STEME
Outline: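 Weed seeds are sown in pots under soil, and WP or EC formulations are applied pre-emergence to the soil surface as an aqueous suspension or emulsion with 0.5% additive. After about 3 weeks in the greenhouse, effect is scored visually as % versus untreated controls (100% = plants dead, 0% = like control).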

Cn1ncc(C(=O)c2ccc(C(F)(F)F)c3c2OCS3(=O)=O)c1O [Example 1-43]
Pre-emergence action against VERPE (Veronica persica (VERPE)): 100%
Pre-emergence action against AMARE [1]: 100%
Pre-emergence action against ECHCG [2]: 100%
Pre-emergence action against SETVI (Setaria viridis (SETVI)): 100%
Pre-emergence action against VIOTR (Viola tricolor (VIOTR)): 100%
Pre-emergence action against CYPES [3]: 100%
Pre-emergence action against ABUTH [4]: 90%
Pre-emergence action against STEME (Stellaria media (STEME)): 90%
